Some targets named below: BTK (Homo sapiens, UniProt Q06187); CAMK2G (Homo sapiens, UniProt Q13555); CDK3 (Homo sapiens, UniProt Q00526); CDKL1 (Homo sapiens, UniProt Q00532); LYN (Homo sapiens, UniProt P07948); PIK3CA(E542K) (Homo sapiens, UniProt P42336, E542K); PIK3CA(E545A) (Homo sapiens, UniProt P42336, E545A); PIP5K1C (Homo sapiens, UniProt O60331).
Holding throughout (assay): biochemical
Holding throughout (set-up): DiscoveRx KINOMEscan active site-directed competition binding; percent of control kinase bound to immobilised ligand

A further experiment deals with T1, BMX (Homo sapiens, UniProt P51813).
T1 sequence (P51813 1-675): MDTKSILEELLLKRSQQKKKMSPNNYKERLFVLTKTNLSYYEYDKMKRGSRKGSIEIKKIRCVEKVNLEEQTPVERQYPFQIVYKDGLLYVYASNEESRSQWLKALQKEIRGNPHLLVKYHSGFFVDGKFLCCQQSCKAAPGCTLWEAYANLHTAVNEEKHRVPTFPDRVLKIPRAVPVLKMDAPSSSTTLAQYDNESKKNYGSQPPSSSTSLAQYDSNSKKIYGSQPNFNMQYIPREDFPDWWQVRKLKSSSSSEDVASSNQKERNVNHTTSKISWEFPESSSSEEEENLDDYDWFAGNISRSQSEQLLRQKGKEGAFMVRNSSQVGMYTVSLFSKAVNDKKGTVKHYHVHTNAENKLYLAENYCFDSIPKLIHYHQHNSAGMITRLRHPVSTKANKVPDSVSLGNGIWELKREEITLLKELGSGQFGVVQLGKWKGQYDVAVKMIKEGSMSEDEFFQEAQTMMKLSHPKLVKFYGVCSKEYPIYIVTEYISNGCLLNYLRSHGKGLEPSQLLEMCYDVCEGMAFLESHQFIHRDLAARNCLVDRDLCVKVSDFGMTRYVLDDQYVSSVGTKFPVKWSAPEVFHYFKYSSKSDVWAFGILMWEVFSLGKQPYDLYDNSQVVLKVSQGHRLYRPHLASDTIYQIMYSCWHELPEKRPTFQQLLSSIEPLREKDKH

The target of another experiment is T2, JNK2 (Homo sapiens, UniProt P45984).
T2 construct: gene MAPK9

In another experiment the target is T3, PIK3CD (Homo sapiens, UniProt O00329).
T3 sequence (O00329 1-1044): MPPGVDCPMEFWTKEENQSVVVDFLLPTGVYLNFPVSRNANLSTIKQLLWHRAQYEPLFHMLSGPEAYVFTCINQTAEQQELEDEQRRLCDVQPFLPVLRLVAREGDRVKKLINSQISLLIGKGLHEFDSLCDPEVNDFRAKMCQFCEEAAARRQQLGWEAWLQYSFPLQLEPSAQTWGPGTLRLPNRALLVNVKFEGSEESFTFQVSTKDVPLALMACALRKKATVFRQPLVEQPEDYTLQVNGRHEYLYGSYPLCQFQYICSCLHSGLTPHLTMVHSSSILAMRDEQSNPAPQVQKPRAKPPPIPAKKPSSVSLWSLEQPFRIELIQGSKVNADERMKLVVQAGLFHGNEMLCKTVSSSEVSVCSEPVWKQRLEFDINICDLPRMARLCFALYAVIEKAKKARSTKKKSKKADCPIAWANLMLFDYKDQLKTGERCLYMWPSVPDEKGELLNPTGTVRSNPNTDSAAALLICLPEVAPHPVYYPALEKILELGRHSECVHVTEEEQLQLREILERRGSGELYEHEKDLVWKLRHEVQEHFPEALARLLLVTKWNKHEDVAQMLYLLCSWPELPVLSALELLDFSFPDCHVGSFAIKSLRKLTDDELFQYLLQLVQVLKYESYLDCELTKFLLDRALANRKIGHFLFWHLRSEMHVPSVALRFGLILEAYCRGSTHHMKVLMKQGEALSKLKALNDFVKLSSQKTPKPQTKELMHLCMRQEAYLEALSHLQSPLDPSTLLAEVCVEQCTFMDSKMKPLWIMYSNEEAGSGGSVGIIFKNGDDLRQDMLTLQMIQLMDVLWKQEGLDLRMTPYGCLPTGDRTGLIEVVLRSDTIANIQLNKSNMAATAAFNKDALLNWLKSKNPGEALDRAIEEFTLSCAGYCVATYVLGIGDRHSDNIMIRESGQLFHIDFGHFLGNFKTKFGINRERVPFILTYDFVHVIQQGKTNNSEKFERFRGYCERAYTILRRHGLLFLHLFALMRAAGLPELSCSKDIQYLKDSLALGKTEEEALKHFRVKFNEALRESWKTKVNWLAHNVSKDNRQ

Experiment [1] has as its target T4, RSK3(Kin.Dom.2-C-terminal) (Homo sapiens, UniProt Q15349).
T4 construct: gene RPS6KA2; Kin.Dom.2-C-terminal

Where [2] appears, read: read-out: Niraparib (MK-4827) / %Ctrl @ 10000nM.
Setting [3] is: read-out: Talazoparib (BMN 673) / %Ctrl @ 10000nM.
Where [4] appears, read: read-out: Rucaparib / %Ctrl @ 10000nM, binding competition, % of control.
Where [5] appears, read: read-out: Olaparib / %Ctrl @ 10000nM.

Each structure is given as a SMILES string. Like-named read-outs stand apart in the source and are kept apart here.

T2 sequence (P45984 whole entry): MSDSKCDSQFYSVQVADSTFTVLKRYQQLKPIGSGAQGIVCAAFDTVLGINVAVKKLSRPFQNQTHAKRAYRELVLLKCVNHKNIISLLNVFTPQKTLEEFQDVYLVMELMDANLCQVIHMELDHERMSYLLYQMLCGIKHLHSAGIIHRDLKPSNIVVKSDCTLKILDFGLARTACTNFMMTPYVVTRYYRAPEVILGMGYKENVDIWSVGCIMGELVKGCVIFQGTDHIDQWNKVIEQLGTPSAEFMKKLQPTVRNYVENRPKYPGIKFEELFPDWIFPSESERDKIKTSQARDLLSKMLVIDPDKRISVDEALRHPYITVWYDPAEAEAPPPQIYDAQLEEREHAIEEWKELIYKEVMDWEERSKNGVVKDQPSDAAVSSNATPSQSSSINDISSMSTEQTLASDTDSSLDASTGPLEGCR
BTK, sequence (Q06187 whole entry): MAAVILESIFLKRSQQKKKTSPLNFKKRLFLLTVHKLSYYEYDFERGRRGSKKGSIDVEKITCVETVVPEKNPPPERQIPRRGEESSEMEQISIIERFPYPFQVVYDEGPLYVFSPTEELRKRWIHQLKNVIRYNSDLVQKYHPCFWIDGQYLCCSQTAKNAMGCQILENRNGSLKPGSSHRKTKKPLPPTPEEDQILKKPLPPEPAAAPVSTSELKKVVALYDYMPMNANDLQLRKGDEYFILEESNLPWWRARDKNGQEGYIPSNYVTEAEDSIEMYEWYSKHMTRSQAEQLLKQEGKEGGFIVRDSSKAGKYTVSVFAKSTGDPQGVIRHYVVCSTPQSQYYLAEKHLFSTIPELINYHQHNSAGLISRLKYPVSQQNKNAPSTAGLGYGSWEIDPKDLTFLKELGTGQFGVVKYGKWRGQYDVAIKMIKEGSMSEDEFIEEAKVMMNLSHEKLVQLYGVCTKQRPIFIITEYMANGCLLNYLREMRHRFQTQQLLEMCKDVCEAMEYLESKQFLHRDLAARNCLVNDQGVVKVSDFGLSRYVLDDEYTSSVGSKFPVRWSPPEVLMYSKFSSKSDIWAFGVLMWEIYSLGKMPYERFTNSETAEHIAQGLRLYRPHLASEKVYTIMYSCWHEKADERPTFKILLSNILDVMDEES
PIK3CA(E545A), sequence (P42336 whole entry E545A): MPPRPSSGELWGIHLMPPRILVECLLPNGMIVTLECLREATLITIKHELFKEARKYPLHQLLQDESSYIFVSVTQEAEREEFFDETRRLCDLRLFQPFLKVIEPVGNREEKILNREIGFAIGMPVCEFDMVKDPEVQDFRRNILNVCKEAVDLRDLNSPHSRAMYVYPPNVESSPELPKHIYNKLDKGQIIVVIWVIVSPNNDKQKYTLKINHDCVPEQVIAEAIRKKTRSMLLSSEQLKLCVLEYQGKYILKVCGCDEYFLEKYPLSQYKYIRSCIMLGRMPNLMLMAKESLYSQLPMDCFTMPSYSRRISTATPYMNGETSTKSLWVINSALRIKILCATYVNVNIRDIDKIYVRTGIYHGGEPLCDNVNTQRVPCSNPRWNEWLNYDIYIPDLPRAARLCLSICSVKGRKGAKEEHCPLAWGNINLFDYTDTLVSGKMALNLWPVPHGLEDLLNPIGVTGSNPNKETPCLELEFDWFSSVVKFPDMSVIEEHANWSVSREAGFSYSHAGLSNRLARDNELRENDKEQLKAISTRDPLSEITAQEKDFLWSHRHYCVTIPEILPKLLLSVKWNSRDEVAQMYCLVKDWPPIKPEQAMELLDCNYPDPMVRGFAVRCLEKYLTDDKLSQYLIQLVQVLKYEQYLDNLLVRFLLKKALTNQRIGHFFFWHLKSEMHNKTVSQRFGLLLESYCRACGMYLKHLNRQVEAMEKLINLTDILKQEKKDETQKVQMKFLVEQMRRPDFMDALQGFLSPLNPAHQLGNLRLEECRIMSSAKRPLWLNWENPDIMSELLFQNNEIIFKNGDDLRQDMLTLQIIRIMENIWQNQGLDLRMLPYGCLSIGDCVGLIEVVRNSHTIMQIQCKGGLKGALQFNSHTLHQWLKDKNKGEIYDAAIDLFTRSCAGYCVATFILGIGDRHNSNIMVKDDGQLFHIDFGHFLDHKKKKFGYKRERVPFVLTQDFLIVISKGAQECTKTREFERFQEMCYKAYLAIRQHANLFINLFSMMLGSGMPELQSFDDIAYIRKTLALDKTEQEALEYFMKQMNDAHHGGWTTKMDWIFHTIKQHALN
LYN, sequence (P07948 whole entry): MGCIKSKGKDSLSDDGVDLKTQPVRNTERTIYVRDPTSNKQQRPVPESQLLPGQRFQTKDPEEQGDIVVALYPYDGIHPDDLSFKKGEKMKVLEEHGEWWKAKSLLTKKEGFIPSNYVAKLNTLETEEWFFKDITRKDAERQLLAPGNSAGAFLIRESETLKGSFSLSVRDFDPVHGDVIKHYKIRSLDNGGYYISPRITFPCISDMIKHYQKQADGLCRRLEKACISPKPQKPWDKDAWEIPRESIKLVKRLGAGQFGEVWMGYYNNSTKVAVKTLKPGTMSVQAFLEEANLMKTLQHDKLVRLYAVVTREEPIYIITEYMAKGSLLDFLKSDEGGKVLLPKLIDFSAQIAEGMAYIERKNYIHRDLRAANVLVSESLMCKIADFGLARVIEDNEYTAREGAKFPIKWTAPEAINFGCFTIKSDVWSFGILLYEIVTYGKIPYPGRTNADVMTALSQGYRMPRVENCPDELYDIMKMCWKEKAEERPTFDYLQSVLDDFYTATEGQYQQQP
PIK3CA(E542K), sequence (P42336 whole entry E542K): as the sequence (P42336 whole entry E545A) above, with E542K, A545E counted along it
PIP5K1C, sequence (O60331 whole entry): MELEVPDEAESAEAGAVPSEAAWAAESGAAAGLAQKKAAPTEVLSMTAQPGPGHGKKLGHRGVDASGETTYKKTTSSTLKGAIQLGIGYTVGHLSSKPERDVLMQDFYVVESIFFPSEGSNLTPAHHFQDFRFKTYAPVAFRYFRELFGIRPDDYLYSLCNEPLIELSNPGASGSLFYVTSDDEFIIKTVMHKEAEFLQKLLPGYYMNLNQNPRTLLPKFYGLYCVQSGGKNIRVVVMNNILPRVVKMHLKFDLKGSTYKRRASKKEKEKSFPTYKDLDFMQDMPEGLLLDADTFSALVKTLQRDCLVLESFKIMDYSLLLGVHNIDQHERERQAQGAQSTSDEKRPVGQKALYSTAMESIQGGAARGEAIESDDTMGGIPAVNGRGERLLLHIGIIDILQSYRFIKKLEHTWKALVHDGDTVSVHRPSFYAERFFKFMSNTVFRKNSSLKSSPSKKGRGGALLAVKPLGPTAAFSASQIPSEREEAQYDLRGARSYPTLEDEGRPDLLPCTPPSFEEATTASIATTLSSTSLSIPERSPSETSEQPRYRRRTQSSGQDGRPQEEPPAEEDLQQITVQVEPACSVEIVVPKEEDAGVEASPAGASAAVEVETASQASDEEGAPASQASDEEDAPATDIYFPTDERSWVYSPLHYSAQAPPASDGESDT
CDK3, sequence (Q00526 whole entry): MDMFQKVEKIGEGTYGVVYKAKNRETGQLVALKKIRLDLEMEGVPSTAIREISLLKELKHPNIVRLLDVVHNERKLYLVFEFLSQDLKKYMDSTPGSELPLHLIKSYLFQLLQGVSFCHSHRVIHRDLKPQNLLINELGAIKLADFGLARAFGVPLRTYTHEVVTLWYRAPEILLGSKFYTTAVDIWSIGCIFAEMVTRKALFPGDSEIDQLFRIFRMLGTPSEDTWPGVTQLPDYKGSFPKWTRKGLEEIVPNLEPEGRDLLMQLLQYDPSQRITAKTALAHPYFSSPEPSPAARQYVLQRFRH
CAMK2G, sequence (Q13555 whole entry): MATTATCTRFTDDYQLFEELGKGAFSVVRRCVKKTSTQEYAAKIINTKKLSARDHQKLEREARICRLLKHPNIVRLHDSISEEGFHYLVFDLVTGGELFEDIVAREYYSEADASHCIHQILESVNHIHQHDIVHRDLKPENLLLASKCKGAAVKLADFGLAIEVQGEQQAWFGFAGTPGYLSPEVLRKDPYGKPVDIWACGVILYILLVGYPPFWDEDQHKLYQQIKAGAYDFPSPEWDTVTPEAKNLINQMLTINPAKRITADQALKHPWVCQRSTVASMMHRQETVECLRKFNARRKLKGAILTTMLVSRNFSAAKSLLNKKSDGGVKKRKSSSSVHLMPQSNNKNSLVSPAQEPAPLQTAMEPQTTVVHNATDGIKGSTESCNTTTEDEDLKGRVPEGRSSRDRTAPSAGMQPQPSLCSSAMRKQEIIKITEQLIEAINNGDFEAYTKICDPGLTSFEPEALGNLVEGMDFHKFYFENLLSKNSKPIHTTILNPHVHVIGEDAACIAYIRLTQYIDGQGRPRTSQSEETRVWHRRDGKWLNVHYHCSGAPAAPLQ
T4 sequence (Q15349 whole entry): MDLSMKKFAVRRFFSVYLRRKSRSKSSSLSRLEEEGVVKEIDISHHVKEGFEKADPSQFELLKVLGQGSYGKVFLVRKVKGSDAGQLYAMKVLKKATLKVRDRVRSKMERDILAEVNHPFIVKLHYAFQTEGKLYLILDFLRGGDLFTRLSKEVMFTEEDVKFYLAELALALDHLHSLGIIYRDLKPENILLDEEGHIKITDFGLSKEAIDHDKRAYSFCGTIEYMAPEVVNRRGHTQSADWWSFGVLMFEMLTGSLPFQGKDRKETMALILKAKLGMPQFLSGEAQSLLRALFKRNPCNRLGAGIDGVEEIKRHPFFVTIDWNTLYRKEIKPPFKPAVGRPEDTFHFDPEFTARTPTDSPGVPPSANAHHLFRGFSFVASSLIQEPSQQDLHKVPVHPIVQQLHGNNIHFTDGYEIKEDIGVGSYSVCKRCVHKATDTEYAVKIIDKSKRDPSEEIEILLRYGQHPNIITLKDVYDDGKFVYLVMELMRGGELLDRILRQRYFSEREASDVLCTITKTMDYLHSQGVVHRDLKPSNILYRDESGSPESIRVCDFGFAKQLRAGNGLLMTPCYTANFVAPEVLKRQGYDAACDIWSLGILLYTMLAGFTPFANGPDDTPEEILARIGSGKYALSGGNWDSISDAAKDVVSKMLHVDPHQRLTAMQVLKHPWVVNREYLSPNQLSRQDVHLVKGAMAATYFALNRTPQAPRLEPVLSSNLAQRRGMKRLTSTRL

For `NC(=O)c1cccc2cn(-c3ccc([C@@H]4CCCNC4)cc3)nc12` [Niraparib], the percent of control binding at 10 µM at BMX (setting [2]) amounted to 87%; on BTK (setting [2]), 95%; at CAMK2G (setting [2]), 95%; on CDK3 (setting [2]) it was 95%; at CDKL1 (setting [2]) it was 94%; on JNK2 (setting [2]) it was 95%. Also, the percent of control binding at 10 µM at LYN (setting [2]) was found to be 71%; on PIK3CA(E542K) (setting [2]) it was 100%; at PIK3CA(E545A) (setting [2]) it was 98%; on PIK3CD (setting [2]), 73%; at PIP5K1C (setting [2]) it was 83%; in experiment [1] (setting [2]) it was 93%.
In the case of `Cn1ncnc1[C@H]1c2n[nH]c(=O)c3cc(F)cc(c23)N[C@@H]1c1ccc(F)cc1` [Talazoparib], the percent of control binding at 10 µM on BMX (setting [3]) was determined as 100%; at BTK (setting [3]), 100%; at CAMK2G (setting [3]), 95%; at CDK3 (setting [3]), 100%; on CDKL1 (setting [3]) it was 49%; on JNK2 (setting [3]) it was 95%. In addition, the percent of control binding at 10 µM on LYN (setting [3]) stood at 87%; on PIK3CA(E542K) (setting [3]) it was 100%; at PIK3CA(E545A) (setting [3]), 73%; on PIK3CD (setting [3]) it was 82%; on PIP5K1C (setting [3]), 100%; in experiment [1] (setting [3]) it was 100%.
Regarding `CNCc1ccc(-c2[nH]c3cc(F)cc4c3c2CCNC4=O)cc1` [Rucaparib], the percent of control binding at 10 µM on BMX (setting [4]) was found to be 91%; at BTK (setting [4]), 83%; at CAMK2G (setting [4]), 83%; at CDK3 (setting [4]) it was 94%; on CDKL1 (setting [4]), 84%; at JNK2 (setting [4]) it was 68%. Further, the percent of control binding at 10 µM on LYN (setting [4]) worked out at 89%; on PIK3CA(E542K) (setting [4]) it was 82%; at PIK3CA(E545A) (setting [4]), 85%; at PIK3CD (setting [4]) it was 64%; on PIP5K1C (setting [4]) it was 100%; in [1] (setting [4]), 67%.
Regarding `O=C(c1cc(Cc2n[nH]c(=O)c3ccccc23)ccc1F)N1CCN(C(=O)C2CC2)CC1` [Olaparib], the percent of control binding at 10 µM on BMX (setting [5]) is 98%; at BTK (setting [5]), 86%; on CAMK2G (setting [5]) it was 100%; at CDK3 (setting [5]) it was 100%; at CDKL1 (setting [5]), 99%; at JNK2 (setting [5]), 81%. Moreover, the percent of control binding at 10 µM at LYN (setting [5]) amounted to 93%; at PIK3CA(E542K) (setting [5]), 94%; at PIK3CA(E545A) (setting [5]), 90%; on PIK3CD (setting [5]) it was 75%; on PIP5K1C (setting [5]), 100%; in experiment [1] (setting [5]), 70%.

For the origin of these results see publication PMC7026418, “The kinase polypharmacology landscape of clinical PARP inhibitors” (Scientific Reports, 2020).
